These results are taken from ChEMBL document CHEMBL1137644, “Polymyxin B induces lysis of marine pseudoalteromonads” (Antimicrob Agents Chemother, 2007).

What all share (type): functional, organism-based
Test [1] has as its system Pseudoalteromonas. Description: Antimicrobial activity against Pseudoalteromonas ER72M2 up to 50 ug/ml.
Test [2] has as its system Pseudoalteromonas. Description: Induction of cell lysis in Pseudoalteromonas ER72M2 assessed as cytoplasmic membrane integrity at 50 ug/ml.
Test [3] concerns Pseudoalteromonas. Description: Induction of cell lysis in Pseudoalteromonas ER72M2 assessed as outer membrane permeability at 50 ug/ml.
Test [4] deals with Pseudoalteromonas. Description: Induction of cell lysis in Pseudoalteromonas ER72M2 assessed as depolarization of cytoplasmic membrane at 3 ug/ml in presence of gramicidin D.
For test [5], the system named is Pseudoalteromonas. Description: Induction of cell lysis in Pseudoalteromonas ER72M2 assessed as binding of phenyldicarbaundecaborane at 3 ug/ml in presence of gramicidin D.
In test [6] the test system is Pseudoalteromonas. Description: Induction of cell lysis in Pseudoalteromonas ER72M2 assessed as leakage of intracellular K+ at 3 ug/ml in presence of gramicidin D.
In test [7] the test system is Pseudoalteromonas. Description: Induction of cell lysis in Pseudoalteromonas ER72M2 assessed as increase in accumulation of phenyldicarbaundecaborane at 2 ug/ml.
Test [8] relates to Pseudoalteromonas. Description: Induction of cell lysis in Pseudoalteromonas ER72M2 assessed as increase in accumulation of tetraphenylphonium at 2 ug/ml.
Test [9] has as its system Pseudoalteromonas. Description: Induction of cell lysis in Pseudoalteromonas ER72M2 assessed as permeability across outer membrane at 2 ug/ml.
The test system of test [10] is Pseudoalteromonas. Description: Induction of cell lysis in Pseudoalteromonas ER72M2 assessed as decipation of K+ gradient on cytoplasmic membrane treated at 50 ug/ml after 30 mins addition of Mg2+ and Ca2+.
Test [11] concerns Pseudoalteromonas. Description: Induction of cell lysis in Pseudoalteromonas ER72M2 assessed as intense membrane alkalization treated at 50 ug/ml after 30 mins addition of Mg2+ and Ca2+.
Test [12] concerns Pseudoalteromonas. Description: Induction of cell lysis in Pseudoalteromonas ER72M2 assessed as depolarization of cytoplasmic membrane treated at 50 ug/ml after 30 mins addition of Mg2+ and Ca2+.
In test [13] the test system is Pseudoalteromonas. Description: Induction of cell lysis in Pseudoalteromonas ER72M2 assessed as accumulation of tetraphenylphonium treated at 50 ug/ml after 30 mins addition of Mg2+ and Ca2+.
Test [14] relates to Pseudoalteromonas. Description: Induction of cell lysis in Pseudoalteromonas ER72M2 assessed as extracellular K+ concentration treated at 50 ug/ml after 30 mins addition of Mg2+ and Ca2+.
The subject of test [15] is Pseudoalteromonas. Description: Induction of cell lysis in Pseudoalteromonas ER72M2 assessed as accumulation of phenyldicarbaundecaborane treated at 50 ug/ml after 30 mins addition of Mg2+ and Ca2+.
Test [16] deals with Pseudoalteromonas. Description: Induction of cell lysis in Pseudoalteromonas ER72M2 assessed as increase in alkalization of membrane treated at 50 ug/ml after 30 mins incubation.
For test [17], the system named is Pseudoalteromonas. Description: Induction of cell lysis in Pseudoalteromonas ER72M2 assessed as dipolarization of cytoplasmic membrane treated at 50 ug/ml after 30 mins incubation.
Test [18] deals with Pseudoalteromonas. Description: Induction of cell lysis in Pseudoalteromonas ER72M2 assessed as increase in extracellular concentration of tetraphenylphonium treated at 50 ug/ml after 30 mins incubation.
For test [19], the system named is Pseudoalteromonas. Description: Induction of cell lysis in Pseudoalteromonas ER72M2 assessed as accumulation of phenyldicarbaundecaborane treated at 50 ug/ml after 30 mins incubation.
For test [20], the system named is Pseudoalteromonas. Description: Induction of cell lysis in Pseudoalteromonas ER72M2 assessed as leakage of intracellular K+ treated at 50 ug/ml after 30 mins incubation.
Test [21] has as its system Pseudoalteromonas. Description: Antimicrobial activity against Pseudoalteromonas ER72M2 after 50 hrs in presence of Ca2+ cation by epsilometer agar diffusion method. Background: In agar diffusion tests the substance spreads into inoculated agar from a disc or well.
Test [22] deals with Pseudoalteromonas. Description: Antimicrobial activity against Pseudoalteromonas ER72M2 after 50 hrs in presence of Mg2+ cation by epsilometer agar diffusion method.
Test [23] concerns Pseudoalteromonas. Description: Antimicrobial activity against Pseudoalteromonas ER72M2 after 50 hrs by epsilometer agar diffusion method.
Test [24] deals with Pseudoalteromonas. Description: Antimicrobial activity against Pseudoalteromonas ER72M2 assessed as after 50 hrs in presence of Mg2+ and Ca2+ by epsilometer agar diffusion method.
The subject of test [25] is Pseudoalteromonas. Description: Induction of cell lysis in Pseudoalteromonas ER72M2 assessed as shrinkage of intracellular volume after 25 mins in presence of divalent cation by light microscopy.
Test [26] deals with Pseudoalteromonas. Description: Induction of cell lysis in Pseudoalteromonas ER72M2 assessed as decrease in culture turbidity treated at 50 ug/ml after 30 mins addition of Ca2+, Mg2+.
For the next test, the system named is Escherichia coli. Description: Induction of cell lysis in Escherichia coli HMS174 assessed as decrease in culture turbidity at 50 ug/ml.
The subject of test [27] is Pseudoalteromonas. Description: Induction of cell lysis in Pseudoalteromonas A28 assessed as decrease in culture turbidity at 50 ug/ml.
For test [28], the system named is Pseudoalteromonas espejiana. Description: Induction of cell lysis in Pseudoalteromonas espejiana BAL31 assessed as decrease in culture turbidity at 50 ug/ml.
Test [29] deals with Pseudoalteromonas. Description: Induction of cell lysis in Pseudoalteromonas ER72M2 assessed as decrease in culture turbidity.
Test [30] relates to Pseudoalteromonas. Description: Induction of cell lysis in Pseudoalteromonas ER72M2 assessed as decrease in culture turbidity at 2 ug/ml in presence of gramicidin D.
For test [31], the system named is Pseudoalteromonas. Description: Induction of cell lysis in Pseudoalteromonas ER72M2 at 10 ug/ml in presence of arsenate.
For test [32], the system named is Pseudoalteromonas. Description: Induction of cell lysis in Pseudoalteromonas ER72M2 at 10 ug/ml.
The subject of test [33] is Pseudoalteromonas. Description: Induction of cell lysis in Pseudoalteromonas ER72M2 assessed as voltage dissipation in presence of KCN.
Test [34] has as its system Pseudoalteromonas. Description: Induction of cell lysis in Pseudoalteromonas ER72M2 assessed as decrease in culture turbidity at 2 ug/ml in presence of nigericin.
Test [35] has as its system Pseudoalteromonas. Description: Induction of cell lysis in Pseudoalteromonas ER72M2 assessed as decrease in culture turbidity treated at 50 ug/ml after 30 mins addition of Ca2+.
Test [36] relates to Pseudoalteromonas. Description: Induction of cell lysis in Pseudoalteromonas ER72M2 assessed as decrease in culture turbidity treated at 50 ug/ml after 30 mins addition of Mg2+.
The subject of test [37] is Pseudoalteromonas. Description: Induction of cell lysis in Pseudoalteromonas ER72M2 assessed as complete lysis treated at 50 ug/ml after 30 mins addition of Ca2+, Mg2+.
The test system of test [38] is Pseudoalteromonas. Description: Induction of cell lysis in gramicidin D-deplolarized Pseudoalteromonas ER72M2 assessed as decrease in culture turbidity at 2 ug/ml.

Activity calls are given as the source filed them. Bridge positions count the residues as written; N and C are the ends. Square brackets hold non-standard residues; d marks the D form. Peptide text beside a SMILES is read from it. Dab = NCC[C@H](N)C(=O)O

On to `CC(C)C[C@@H]1NC(=O)[C@@H](Cc2ccccc2)NC(=O)[C@H](CCN)NC(=O)[C@@H](NC(=O)[C@H](CCN)NC(=O)[C@@H](N)[C@@H](C)O)CCNC(=O)[C@H]([C@@H](C)O)NC(=O)[C@H](CCN)NC(=O)[C@H](CCN)NC1=O` (H-T[Dab][Dab][Dab][dF]L[Dab][Dab]T; lactam 3-C), for which the result in the test on Pseudoalteromonas [1] and in the test with Pseudoalteromonas [2] was inactive. Moreover, in the test on Pseudoalteromonas [3], the outcome was Active.
By MIC is commonly meant the smallest concentration in the dilution series that meets the test's criterion for growth inhibition. Turning to POLYMYXIN B, the outcome in the test with Pseudoalteromonas [4], in the test with Pseudoalteromonas [5], with Pseudoalteromonas [6], with Pseudoalteromonas [7], with Pseudoalteromonas [8] and in the test with Pseudoalteromonas [10] was Active. Besides, the result in the test with Pseudoalteromonas [11], in the test with Pseudoalteromonas [12], in the test with Pseudoalteromonas [13], in the test with Pseudoalteromonas [14], with Pseudoalteromonas [15] and in the test with Pseudoalteromonas [16] was Active. For the same compound, the outcome in the test on Pseudoalteromonas [17], in the test on Pseudoalteromonas [18], with Pseudoalteromonas [19], in the test with Pseudoalteromonas [20], with Pseudoalteromonas [25] and with Escherichia coli was Active. Further, the result (in the test on Pseudoalteromonas [27]; in [28]; in the test with Pseudoalteromonas [3]; in the test with Pseudoalteromonas [31]; with Pseudoalteromonas [32]; in the test with Pseudoalteromonas [33]) was Active. For the same compound, the outcome with Pseudoalteromonas [34], in the test with Pseudoalteromonas [35] and in the test on Pseudoalteromonas [36] was Active. The outcome with Pseudoalteromonas [9], with Pseudoalteromonas [26], in the test on Pseudoalteromonas [30], in the test on Pseudoalteromonas [37] and with Pseudoalteromonas [38] was inactive. Also, the minimal inhibitory concentration (MIC) was found to be 0.11 µg/mL with Pseudoalteromonas [21], 0.33 µg/mL in the test on Pseudoalteromonas [22], 0.33 µg/mL in the test with Pseudoalteromonas [23] and 0.42 µg/mL with Pseudoalteromonas [24]. Besides, the Activity entry in the test with Pseudoalteromonas [29] is “Dose-dependent effect”.
